Experimental data: the NIST ThermoML archive (doi:10.1021/je1011604)

Tests used:
[1] = 101.33 kPa, Liquid, Pycnometric method
[2] = xn = mol fraction of the nth substance listed; settings: 101 kPa, Liquid, Capillary tube (Ostwald / Ubbelohde) method

CCC(C)=O [butanone]
[1]
Settings | mass density [kg/m3]
303.15 K | 794.6
313.15 K | 784
323.15 K | 773.3

c1ccccc1 [benzene]
[1]
Settings | mass density [kg/m3]
303.15 K | 868.1
313.15 K | 857.4
323.15 K | 846.6

CCC(C)=O [butanone] + c1ccccc1
viscosity [mPa·s], [2]
Settings | x1 = 0.101 | x1 = 0.1999 | x1 = 0.2988 | x1 = 0.3969 | x1 = 0.4996 | x1 = 0.5988 | x1 = 0.6993 | x1 = 0.7931 | x1 = 0.8961 | x1 = 1
303.15 K | 0.534 | 0.508 | 0.478 | 0.452 | 0.432 | 0.417 | 0.401 | 0.389 | 0.376 | 0.367
313.15 K | 0.473 | 0.448 | 0.427 | 0.409 | 0.393 | 0.378 | 0.367 | 0.355 | 0.345 | 0.334
323.15 K | 0.422 | 0.403 | 0.384 | 0.369 | 0.354 | 0.343 | 0.333 | 0.324 | 0.316 | 0.306

c1ccccc1 [benzene] + CCC(C)=O
[2], x2 = 0
Settings | viscosity [mPa·s]
303.15 K | 0.564
313.15 K | 0.498
323.15 K | 0.442
